Source: patent US20250073255A1, “USE OF FA-TYPE LIPID COMPOUNDS IN PREPARATION OF NUCLEIC ACID DELIVERY REAGENT AND RELATED PRODUCT” (BEIJING BAISHIKANG PHARMACEUTICAL TECHNOLOGY (BSJPHARMA) …, priority 2021, published 2025)

Tested on: C57BL/6 male mice
Experiment: In vivo delivery study of lipid nucleic acid mixture (oral gavage, RT-qPCR of PGY-sRNA-26 in tissues)
Design: species or system mouse
Conditions: for overall delivery efficacy: delivering nucleic acids into each tissue and blood tested: 100 μg lipid:10 nmol PGY-sRNA-26, all tissues and blood tested; for oral delivery of single-stranded sRNA nucleic acids into mouse heart tissue: vs free uptake group; for oral delivery of single-stranded sRNA nucleic acids into mouse intestinal tissue: intestine
Procedure: 10 nmol of small RNA (as shown in Table 2) was dissolved in 400 μl of DEPC-treated water in a glass tube, 10 μl of the corresponding lipid stock solution was added such that the lipid mass in the system was 100 μg. The mixture was mixed thoroughly, heated in a 90° C. water bath for 15 minutes, and then cooled naturally to obtain the lipid nucleic acid mixture of lipid and small RNA.
C57BL/6 male mice, approximately 6 weeks old, weighing […], were obtained from Beijing Vital River Laboratory Animal Technology Co., Ltd. The mice were housed in the SPF-grade animal facility at the Animal Center of the Institute of Basic Medical Sciences, Chinese Academy of Medical Sciences. The mice were fasted for 12 hours before gavage administration.
The lipid nucleic acid mixture was prepared following the method described in Example 2. The resultant lipid nucleic acid mixture was orally administered to each mouse at a dose of 100 μg lipid:10 nmol single-stranded 3-methylated small RNA PGY-sRNA-26.
• 1) Blank group (n=4): mice were administered with 500 μl saline by gavage, this group served as a blank control; • 2) Free uptake group (n=4): mice were directly administered with small RNA PGY-sRNA-26 solution (10 nmol/mouse, 500 l) by gavage, this group served as a negative control; • 3) Lipid-treated group (n=4): mice were administered with 500 μl lipid nucleic acid mixture prepared in step 2 by gavage.
After 12 hours of gavage administration, 500 μl blood from the eyeball of each mouse was sampled, added to 1.5 ml Trizol Reagent LS (purchased from Invitrogen), thoroughly mixed for lysis. 3 ml of Trizol Reagent LSwas added to tissue samples and homogenized for complete lysis, wherein the sampled tissues include heart, liver, spleen, lung, kidney, stomach, intestine, brain, blood, femur, pancreas. RNAwas extracted from 1 ml of the blood or the tissue lysate following the steps below: • Centrifuge at 4° C., 12,000 rpm for 5 min, discard the precipitate, transfer Trizol to a new centrifuge tube; • Add chloroform at 200 μL chloroform/mL Trizol, shake well, stand at room temperature for 5 min; • Centrifuge at 4° C., 12,000 rpm for 15 min; • Take the upper aqueous phase to another centrifuge tube, add isopropanol at 0.4 mL isopropanol/mL Trizol, mix well, and stand at low temperature for 10-20 min; • Centrifuge at 4° C., 12,000 rpm for 15 min, discard the supernatant, RNA precipitated at the bottom of the tube; • Add 1 mL of 75% ethanol, gently shake the centrifuge tube, suspend the precipitate; • Centrifuge at 4° C., 12,000 rpm for 15 min, discard the supernatant, add 1 mL of 75% ethanol, gently shake the centrifuge tube, suspend the precipitate; • Centrifuge at 4° C., 12,000 rpm for 15 min, discard the supernatant, air-dry at room temperature, dissolve RNA samples in 50 μL RNase-free H2O, measure OD value to quantify RNA concentration. 3.3 Reverse Transcription of sRNA to cDNA:
sRNA was reverse transcribed to cDNA using the High-Capacity cDNA Reverse Transcription Kit (Applied Biosystems, cat. no. 4368813) by stem-loop method (see, e.g., “Real-time quantification of microRNAs by stem-loop RT-PCR, Nucleic Acids Res. 2005 Nov. 27; 33(20):e179”, incorporated herein by reference). The reverse transcription system is as follows: Template RNA (200 ng/μL) 10 μL, 10×RT Buffer 2.0 μL, 25×dNTP Mix (100 mM) 0.8 μL, U6 RT stem-loop primer (10 μM) 2.0 μL, PGY-sRNA-26 RT stem-loop primer (10 μM) 2.0 μL, MultiScribe™ Reverse Transcriptase (50 U/μL) 1.0 μL, RNAse Inhibitor (40 U/μL) 1.0 μL, nuclease-free H2O 1.2 μL. After transient centrifugation, the reverse transcription system was placed in a PCR machine with the following reaction conditions: (1) 25° C., 10 min; (2) 37° C., 120 min; (3) 85° C., 5 min; (4) 4° C., stop reaction. After the reaction, add 20 μL RNAse-free ddH2O, adjust the final volume to 40 μL. […]

[1] = 100 μg lipid:10 nmol PGY-sRNA-26, sampled after 12 hours

Q: Which results are given for CC/C=C/CC1C(=O)CCC1CC(=O)OC (stereo not drawn) [Lipid 501]?
A: overall delivery efficacy: delivering nucleic acids into each tissue and blood tested: best delivery efficacy; oral delivery of single-stranded sRNA nucleic acids into mouse blood [1]: can effectively orally deliver; oral delivery of single-stranded sRNA nucleic acids into mouse brain tissue [1]: can effectively orally deliver; oral delivery of single-stranded sRNA nucleic acids into mouse heart tissue [1]: can effectively orally deliver; oral delivery of single-stranded sRNA nucleic acids into mouse intestinal tissue [1]: can effectively orally deliver; oral delivery of single-stranded sRNA nucleic acids into mouse kidney tissue [1]: can effectively orally deliver; oral delivery of single-stranded sRNA nucleic acids into mouse liver tissue [1]: can effectively orally deliver; oral delivery of single-stranded sRNA nucleic acids into mouse lung tissue [1]: can effectively orally deliver; oral delivery of single-stranded sRNA nucleic acids into mouse spleen tissue [1]: can effectively orally deliver; oral delivery of single-stranded sRNA nucleic acids into mouse stomach tissue [1]: can effectively orally deliver

Q: What does the source list for CC(=O)CCC=C(C)CCC=C(C)C [Lipid 502, 6,10-dimethylundeca-5,9-dien-2-one]?
A: oral delivery of single-stranded sRNA nucleic acids into mouse blood [1]: can effectively orally deliver; oral delivery of single-stranded sRNA nucleic acids into mouse brain tissue [1]: can effectively orally deliver; oral delivery of single-stranded sRNA nucleic acids into mouse heart tissue [1]: can effectively orally deliver; oral delivery of single-stranded sRNA nucleic acids into mouse intestinal tissue [1]: can effectively orally deliver; oral delivery of single-stranded sRNA nucleic acids into mouse kidney tissue [1]: can effectively orally deliver; oral delivery of single-stranded sRNA nucleic acids into mouse spleen tissue [1]: can effectively orally deliver; oral delivery of single-stranded sRNA nucleic acids into mouse stomach tissue [1]: can effectively orally deliver

Q: CC1(O)CCCC1 [Lipid 503] was tested. Which “oral delivery of single-stranded sRNA nucleic acids into mouse blood” value [1] did it give?
A: can effectively orally deliver

Q: And the “oral delivery of single-stranded sRNA nucleic acids into mouse brain tissue” value [1]?
A: can effectively orally deliver

Q: What about the “oral delivery of single-stranded sRNA nucleic acids into mouse intestinal tissue” value [1] of the same compound?
A: can effectively orally deliver

Q: What about the “oral delivery of single-stranded sRNA nucleic acids into mouse kidney tissue” value [1] of the same compound?
A: can effectively orally deliver

Q: And the “oral delivery of single-stranded sRNA nucleic acids into mouse liver tissue” value [1]?
A: can effectively orally deliver

Q: What about the “oral delivery of single-stranded sRNA nucleic acids into mouse lung tissue” value [1] of the same compound?
A: can effectively orally deliver

Q: And the “oral delivery of single-stranded sRNA nucleic acids into mouse spleen tissue” value [1]?
A: can effectively orally deliver

Q: And the “oral delivery of single-stranded sRNA nucleic acids into mouse stomach tissue” value [1]?
A: can effectively orally deliver

Q: What does the source list for CCCCCCCCCCCC(C)O (stereo not drawn) [Lipid 505, tridecan-2-ol]?
A: oral delivery of single-stranded sRNA nucleic acids into mouse blood [1]: can effectively orally deliver; oral delivery of single-stranded sRNA nucleic acids into mouse brain tissue [1]: can effectively orally deliver; oral delivery of single-stranded sRNA nucleic acids into mouse liver tissue [1]: can effectively orally deliver; oral delivery of single-stranded sRNA nucleic acids into mouse stomach tissue [1]: can effectively orally deliver

Q: Which “oral delivery of single-stranded sRNA nucleic acids into mouse heart tissue” value [1] does the source give for CCCCCCCCCCCCCCCCCCCCCCC(=O)NCCO [Lipid 519, N-(2-hydroxyethyl)tricosanamide] here?
A: can effectively orally deliver

Q: And the “oral delivery of single-stranded sRNA nucleic acids into mouse kidney tissue” value [1]?
A: can effectively orally deliver

Q: What about the “oral delivery of single-stranded sRNA nucleic acids into mouse lung tissue” value [1] of the same compound?
A: can effectively orally deliver

Q: What about the “oral delivery of single-stranded sRNA nucleic acids into mouse stomach tissue” value [1] of the same compound?
A: can effectively orally deliver

Q: What does the source list for CCCCC/C=C\C/C=C\C/C=C\C/C=C\CCCCCC(=O)O [Lipid 520, (7Z,10Z,13Z,16Z)-docosa-7,10,13,16-tetraenoic acid]?
A: oral delivery of single-stranded sRNA nucleic acids into mouse brain tissue [1]: can effectively orally deliver; oral delivery of single-stranded sRNA nucleic acids into mouse heart tissue [1]: can effectively orally deliver; oral delivery of single-stranded sRNA nucleic acids into mouse liver tissue [1]: can effectively orally deliver; oral delivery of single-stranded sRNA nucleic acids into mouse lung tissue [1]: can effectively orally deliver; oral delivery of single-stranded sRNA nucleic acids into mouse spleen tissue [1]: can effectively orally deliver

Q: How did the “oral delivery of single-stranded sRNA nucleic acids into mouse blood” value [1] turn out when NCCCCCC(=O)NCCCCCC(=O)O [Lipid 522, 6-(6-aminohexanoylamino)hexanoic acid] was run?
A: can effectively orally deliver

Q: What about the “oral delivery of single-stranded sRNA nucleic acids into mouse heart tissue” value [1] of the same compound?
A: can effectively orally deliver

Q: What about the “oral delivery of single-stranded sRNA nucleic acids into mouse intestinal tissue” value [1] of the same compound?
A: can effectively orally deliver

Q: And the “oral delivery of single-stranded sRNA nucleic acids into mouse lung tissue” value [1]?
A: can effectively orally deliver

Q: And the “oral delivery of single-stranded sRNA nucleic acids into mouse spleen tissue” value [1]?
A: can effectively orally deliver

Q: And the “oral delivery of single-stranded sRNA nucleic acids into mouse stomach tissue” value [1]?
A: can effectively orally deliver

Q: For CCCCCC(=O)/C=C/C=O [Lipid 525, (E)-4-oxonon-2-enal], which “oral delivery of single-stranded sRNA nucleic acids into mouse intestinal tissue” value [1] is on record?
A: can effectively orally deliver

Q: And the “oral delivery of single-stranded sRNA nucleic acids into mouse kidney tissue” value [1]?
A: can effectively orally deliver

Q: And the “oral delivery of single-stranded sRNA nucleic acids into mouse lung tissue” value [1]?
A: can effectively orally deliver

Q: What about the “oral delivery of single-stranded sRNA nucleic acids into mouse spleen tissue” value [1] of the same compound?
A: can effectively orally deliver

Q: And the “oral delivery of single-stranded sRNA nucleic acids into mouse stomach tissue” value [1]?
A: can effectively orally deliver

Q: How did the “overall delivery efficacy: delivering nucleic acids into each tissue and blood tested” value turn out when CC/C=C/CCO [Lipid 526] was run?
A: best delivery efficacy

Q: And the “oral delivery of single-stranded sRNA nucleic acids into mouse blood” value [1]?
A: can effectively orally deliver

Q: What about the “oral delivery of single-stranded sRNA nucleic acids into mouse brain tissue” value [1] of the same compound?
A: can effectively orally deliver

Q: What about the “oral delivery of single-stranded sRNA nucleic acids into mouse femur” value (100 μg lipid:10 nmol PGY-sRNA-26, sampled after 12 hours, femur) of the same compound?
A: can effectively orally deliver

Q: What about the “oral delivery of single-stranded sRNA nucleic acids into mouse heart tissue” value [1] of the same compound?
A: can effectively orally deliver

Q: And the “oral delivery of single-stranded sRNA nucleic acids into mouse intestinal tissue” value [1]?
A: can effectively orally deliver

Q: And the “oral delivery of single-stranded sRNA nucleic acids into mouse kidney tissue” value [1]?
A: can effectively orally deliver

Q: What about the “oral delivery of single-stranded sRNA nucleic acids into mouse liver tissue” value [1] of the same compound?
A: can effectively orally deliver

Q: What about the “oral delivery of single-stranded sRNA nucleic acids into mouse lung tissue” value [1] of the same compound?
A: can effectively orally deliver

Q: And the “oral delivery of single-stranded sRNA nucleic acids into mouse spleen tissue” value [1]?
A: can effectively orally deliver

Q: And the “oral delivery of single-stranded sRNA nucleic acids into mouse stomach tissue” value [1]?
A: can effectively orally deliver
